For one assay, the target named is Lactoperoxidase (Bos taurus, UniProt P80025). Briefly: Lactoperoxidase (LPO) activity, spectrophotometric assay (ABTS). The format is biochemical. Here is the method:
Lactoperoxidase is a member of the heme peroxidase family of enzymes that, together with a catalytic anion (such as I^−, derived from KI, present in the substrate), will catalyse the oxidation of H2O2, leading to hypojodite (IO^−). This hypojodite is a reactive oxygen species (ROS). To measure the enzymatic activity of LPO, a standard spectrophotometric assay is performed. In brief, H2O2 combined with 2,2′-azino-bis (3-ethylbenzothiazoline-6-sulfonzuur (ABTS) is catalysed by LPO so that the formation of a coloured compound is achieved that can in turn be measured by spectrophotometry. LPO was tested in 3 different concentrations, i.e., 50, 10 and 1 mg/ml. Each reaction mixture was tested in duplo. In the event LPO activity was evaluated in the presence of a potentiator candidate (=a molecule that might be able to augment the enzymatic activity of LPO), the latter was added in a low and high concentration ranging from 100 to 0.1 mg/ml. The blank consisted of the reaction mix in which H2O2 was absent. The absorbance was immediately measured with a plate reader (Spectramax ID3, Molecular Devices) every 12 seconds for 5 minutes at 20° C. For each combination evaluated, this test was repeated at least 2 times. Results were further analysed in MS Excel and expressed as U/g. Mean blank-corrected data±SD were plotted. Statistical significance compared to the combination without potentiator candidate (reference) was calculated using students' t-tests. Significance is achieved when the obtained p-value is lower than 0,05. Significance levels were defined as p<0.05=*; p<0.01=** and p<0.001=***.

Assay [1] has as its system Staphylococcus aureus ATCC® 6538™. Kind of assay: Absolute microbial counts in function of enzyme solution concentration. It is filed as cell-based. The settings on record: 0.005%-0.0000391% (v/v) GOX+LPO. The text has this:
(§1) Absolute microbial counts in function of concentration of the antimicrobial agent tested are useful to monitor the bactericidal and fungicidal efficacy of that agent.
(§2) To determine the absolute number of live microorganisms in function of different enzyme solution concentrations tested, a classical broth microdilution assay combined with standard CFU enumeration techniques was used to determine the susceptibility of a series of microbes commonly detected in infected wounds, including (a) the Gram-positive bacterium Staphylococcus aureus ATCC® 6538™ (results shown below), (b) the Gram-negative bacterium Pseudomonas aeruginosa ATCC®9027™ (results shown below), (c) the yeast Candida albicans ATCC®10231™ (results shown below), and (d) the fungus Aspergillus niger ATCC®16404™ (results shown below). In brief, the broth microdilution assay was set up as previously described (see 2.1). After incubation, the absolute microbial count at the MIC and following higher concentrations (MICx2, MICx4, and so on) was determined using standard CFU enumeration techniques. For each combination evaluated, this test was repeated at least 5 times. The collected data were further analyzed in MS Excel and expressed as log CFU/ml. Mean results were plotted in function of enzyme solution concentration.

The test system is the same in assay [2]. Kind of assay: MBC determination, broth microdilution with CFU enumeration. The format is cell-based. The settings on record: S. aureus. A general note: Dilution methods test growth across graded concentrations, often in twofold steps.
The test system of assay [3] is Candida albicans ATCC®10231™. Kind of assay: Absolute microbial counts in function of enzyme solution concentration. The format is cell-based. As to conditions: enhancer 0.01%; 0.005%-0.0000391% (v/v) GOX+LPO.
Description: as §1, §2

In assay [4] the test system is Candida albicans ATCC®10231™. Kind of assay: MBC determination, broth microdilution with CFU enumeration. The format is cell-based. The settings on record: C. albicans; enhancer 0.01%.
The test system of a further assay is MMP9. Kind of assay: MMP9 secretion by THP-1-derived macrophages, ELISA. The format is cell-based. The settings on record: 24 h. Here is the method:
First, the effect on the secretion of these mediators by macrophages was evaluated. Secondly, the direct neutralization of already secreted mediators was evaluated. Both were measured by the state-of-the-art ELISA technique. First, the secretion of the pro-inflammatory mediator representatives IL-6, TNFa and MMP9 in cell culture supernatants by THP-1 (a monocytic cell line) after its differentiation into macrophages were measured. In brief, THP-1 cells were seeded at a density of 3×10^5 cells/cm^2 in a 6-well plate in the presence of 160 nM of phorbol-12-myristate-13-acetate (PMA) to induce macrophage differentiation. Differentiation was further conducted for 48 h. […] Supernatants were collected and centrifuged at 150 g for 5 min to remove cell debris and were kept at −20° C. before being processed for ELISA. IL-6, TNFa and MMP9 ELISA kits were purchased from BioTechne and the experiment was performed according to manufacturer's instructions. Briefly, 96-well plates were coated with capture antibodies overnight at room temperature. […] The reaction was stopped by the addition of sulphuric acid and absorbance at 450 nm was read with a plate reader. Absorbance is proportional to the concentration of analyte present in the medium, which was calculated based on a standard curve realized with recombinant IL-6, TNFa and MMP9.
Background: ELISA stands for enzyme-linked immunosorbent assay.

Molecules are shown by their SMILES.

For `NC(=O)C[C@H](N)C(=O)O` [Asparagine, asparagine], the “LPO activity compared to reference” value at Lactoperoxidase (enhancer 0.1 mg/ml) and on Lactoperoxidase (enhancer 1 mg/ml) was “significant increase” in each case.
With `NC(=O)CC[C@H](N)C(=O)O` [Glutamine, glutamine], the “reduction in absolute S. aureus counts compared to reference and guaiacol solution” value (from here on “reduction in absolute S. aureus counts”) in assay [1] (enhancer 0.1%) was “stronger reduction”. Besides, in assay [2] (enhancer 0.1%), the “MBC: GOX+LPO enzyme solution needed” value is on record as 0.0000391 % (v/v), the “increase in MBC compared to reference” value amounted to 4 × and the “increase in MBC compared to the enhancing molecule guaiacol” value stood at 2 ×. Further, the “LPO activity compared to reference” value at Lactoperoxidase (enhancer 0.1 mg/ml) is recorded as “significant increase”. Further, the “LPO activity compared to reference” value on Lactoperoxidase (enhancer 1 mg/ml) is “significant increase”.
In the case of `CC[C@H](C)[C@H](N)C(=O)O` [Isoleucine, isoleucine], the “reduction in absolute S. aureus counts” value in assay [1] (enhancer 0.00125%) and in assay [1] (enhancer 0.005%) was “stronger reduction” throughout. For the same compound, the “reduction in absolute C. albicans counts compared to reference and guaiacol solution” value in assay [3] was “stronger reduction”. Further, the “MBC: GOX+LPO enzyme solution needed” value in assay [2] (enhancer 0.00125%), in assay [2] (enhancer 0.005%) and in assay [4] was 0.0000391 % (v/v) each time. Besides, the “increase in MBC compared to reference” value in assay [2] (enhancer 0.00125%), in assay [2] (enhancer 0.005%) and in assay [4] was 4 × throughout. Further, the “increase in MBC compared to the enhancing molecule guaiacol” value in assay [2] (enhancer 0.00125%), in assay [2] (enhancer 0.005%) and in assay [4] was 2 × in each case. Further, the “additional decrease in MMP9 secretion by macrophages vs GOX+LPO (1:1) alone” value with MMP9 (isoleucine 0.0025%) stood at 12.7%; in the assay on MMP9 (isoleucine 0.05%), 21.5%.
With `N[C@@H](CO)C(=O)O` [Serine, serine], the “reduction in absolute S. aureus counts” value in assay [1] (enhancer 0.0025-0.00125%) and in assay [1] (enhancer 10-0.005%) was “stronger reduction” throughout. The “reduction in absolute C. albicans counts compared to reference and guaiacol solution” value in assay [3] is listed as “stronger reduction”. Further, the “MBC: GOX+LPO enzyme solution needed” value in assay [2] (enhancer 0.0025%-0.00125%), in assay [2] (enhancer 10%-0.005%) and in assay [4] was 0.0000391 % (v/v) in each case. Besides, the “increase in MBC compared to reference” value in assay [2] (enhancer 0.0025%-0.00125%), in assay [2] (enhancer 10%-0.005%) and in assay [4] was 4 × each time. Moreover, the “increase in MBC compared to the enhancing molecule guaiacol” value in assay [2] (enhancer 0.0025%-0.00125%), in assay [2] (enhancer 10%-0.005%) and in assay [4] was 2 × each time. The “LPO activity compared to reference” value at Lactoperoxidase (enhancer 100 mg/ml, reference = no potentiator candidate) is on record as “significant increase”.
Take `C[C@@H](O)[C@H](N)C(=O)O` [Threonine, threonine]: the “LPO activity compared to reference” value on Lactoperoxidase (enhancer 0.1 mg/ml) and on Lactoperoxidase (enhancer 1 mg/ml) was “significant increase” throughout.
